Target: TNFα (Homo sapiens, UniProt P01375)
Assay: HEK-Blue hTNFα reporter assay
Assay type: cell-based
Set-up: purchased R&D biosystem (R&D Systems) 210-TA-020/CF
Conditions: HEK-Blue hTNFα reporter cells, SEAP readout; read-out: IC50 Range
Description: Stimulation of HEK293 cells by TNFα leads to activation of the NF-κB pathway. The potency of compounds was examined in HEK-Blue™ hTNFα reporter cells (Invivogen, Cat #hkb-tnfdmyd). HEK-Blue™ TNFα cells were generated by stable transfection of HEK293 cell line with a SEAP reporter gene under the control of the […] minimal promoter fused to NF-κB binding sites. Stimulation of HEK-Blue™ TNFα cells with TNFα triggers the activation of the NF-κB-inducible promoter and the production of SEAP. Levels of SEAP in the supernatant can be easily determined using QUANTI-Blue™ Solution (Invivogen, cat #rep-qbs) by reading the OD at 620-655 nm.
HEK-Blue™ TNFα cells were cultured in DMEM supplemented with 10% FBS, 100p/mL penicillin, 100 μg/mL streptomycin, 100 μg/mL normocin, 1 μg/mL puromycin, and 100 μg/mL zeocin. The culture was maintained in culture incubator with 5% CO2 at 37° C. When used for assay, the cells were gently rinsed twice with pre-warmed phosphate buffered saline (PBS) and detached in presence of PBS by tapping the flask or by using a cell scraper. The cells were spun to remove PBS and resuspended in fresh, pre-warmed test medium (DMEM supplemented with 10% FBS, 100p/mL penicillin, and 100 μg/mL streptomycin). A serial dilution of work solution of tested compound was made in DMSO with 1000× of final concentration, and 40 nL of compound DMSO solution was transferred into 384-well plates (Corning 3764) by Echo, and incubated with 10 μL of recombinant hTNFα (R&D biosystem, Cat #210-TA-020/CF) for 1 h at 37° C. The compound/hTNFα mixture well received 30 μL HEK-Blue™ TNFα cell suspension at 10000 cells/well, and then incubated at 37° C. with 5% CO2 for 24 h. The final concentration of hTNFα is […]. After incubation, 5 μL of induced cell supernatant was transferred to a new 384-well plate well (Coring 3764) to mix with 45 μL of QUANTI-Blue Solution. After 1 h incubation at 37° C., the plate was read using a spectrophotometer at 620 nm.
The percentage of inhibition was calculated by the following formula: % inhibition=(positive control−Sample)/(positive control−negative control)*100 • Positive control: OD620 reading of cells with hTNFα stimulation. • Negative control: OD620 reading of cells without hTNFα stimulation. • Sample: OD620 reading of cells with compound at specific concentration and hTNFα stimulation
The % inhibition was plotted against compound concentration in logarithmic scale and the IC50 was rendered using 4-parameter nonlinear regression (GraphPad Prism).

Sequence of TNFα (P01375 77-233 limits assumed): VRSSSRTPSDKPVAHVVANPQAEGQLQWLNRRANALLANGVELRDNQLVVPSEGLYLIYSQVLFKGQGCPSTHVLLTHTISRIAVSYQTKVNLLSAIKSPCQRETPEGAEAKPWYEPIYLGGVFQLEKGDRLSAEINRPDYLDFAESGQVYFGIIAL

Structure (SMILES) | IC50 [nM]
CN1C(=O)c2cccc(OC(F)F)c2[C@H]2C[C@@H]1c1nn3ccc(-c4cnc([C@]5(O)CC[C@H](O)C5)nc4)cc3c12 [Example 111] | < 25
C[C@]1(C#N)C[C@](N)(c2ncc(-c3ccn4nc5c(c4c3)[C@@H]3C[C@H]5NC(=O)c4cccc(OC(F)F)c43)cn2)C1 [Example 195] | < 25
[2H]C([2H])([2H])N1C(=O)c2cccc(OC(F)F)c2[C@H]2C[C@@H]1c1nn3cnc(-c4cnc([C@]5(N)C[C@@](C)(C#N)C5)nc4)cc3c12 [Example 61] | < 25
[2H]C([2H])([2H])N1C(=O)c2cccc(OC(F)F)c2[C@H]2C[C@@H]1c1nn3cc(C)c(-c4cnc([C@]5(N)C[C@@](C)(O)C5)nc4)cc3c12 [Example 201] | < 25
[2H]C([2H])([2H])N1C(=O)c2cccc(OC(F)F)c2[C@H]2C[C@@H]1c1nn3ccc(-c4cnc([C@H](N)C5CC5)nc4)nc3c12 [Example 277] | < 25
[2H]C([2H])([2H])N1C(=O)c2cccc(OC(F)F)c2[C@H]2C[C@@H]1c1nn3ccc(-c4cnc(C5(N)CC5)nc4)cc3c12 [Example 255] | < 25
CN1C(=O)c2cccc(OC(F)F)c2[C@H]2C[C@@H]1c1nn3ccc(C4=CCC(C(C)(C)O)CC4)nc3c12 (stereo partly drawn) [Example 8, (7R,14S)-1-(difluoromethoxy)-12-(4-(2-hydroxypropan-2-yl)cyclohex-1-en-1-yl)-6-methyl-6,7-dihydro-7,14-methanobenzo[c]pyrimido[1′,2′:1,5]pyrazolo[4,3-f]azocin-5 (14H)-one] | 25 to 100
CN1C(=O)c2cccc(OC(F)F)c2[C@H]2C[C@@H]1c1nn3ccc(-c4cnc([C@](C)(O)C5CC5)nc4)cc3c12 [Example 81] | < 25
CN1C(=O)c2cccc(OC(F)F)c2[C@H]2C[C@@H]1c1nn3ccc(-c4cnc([C@@]5(O)CC[C@@H](O)C5)nc4)cc3c12 [Example 112] | < 25
[2H]C([2H])([2H])N1C(=O)c2cccc(OC(F)F)c2[C@H]2C[C@@H]1c1nn3ccc(-c4cnc([C@](O)(CC#N)C(F)F)nc4)cc3c12 [Example 96] | < 25
CN1C(=O)c2cccc(OC(F)F)c2[C@H]2C[C@@H]1c1nn3cc(F)c(-c4cnc(C5(N)CCC5)nc4)nc3c12 [Example 23] | < 25
[2H]C([2H])([2H])N1C(=O)c2cccc(OC(F)F)c2[C@H]2C[C@@H]1c1nn3ccc(-c4cnc(N5CC(C)(N)C5)nc4)cc3c12 [Example 291] | < 25
CN1C(=O)c2cccc(OC(F)F)c2[C@H]2C[C@@H]1c1nn3ccc(-c4cnc(P(C)(C)=O)cn4)cc3c12 [Example 87] | < 25
[2H]C([2H])([2H])N1C(=O)c2cccc(OC(F)F)c2[C@H]2C[C@@H]1c1nn3ccc(-c4cnc([C@]5(N)C[C@@](C)(O)C5)nc4C)cc3c12 [Example 281] | < 25
CN1C(=O)c2cccc(OC(F)F)c2[C@H]2C[C@@H]1c1nn3ccc(-c4cnc(C5(N)CCC5)nc4)nc3c12 [Example 3, (7R,14S)-12-(2-(1-aminocyclobutyl)pyrimidin-5-yl)-1-(difluoromethoxy)-6-methyl-6,7-dihydro-7,14-methanobenzo[c]pyrimido[1′,2′:1,5]pyrazolo[4,3-f]azocin-5 (14H)-one] | < 25
[2H]C([2H])([2H])N1C(=O)c2cccc(OC(F)F)c2[C@H]2C[C@@H]1c1nn3cc(F)c(-c4cnc([C@]5(N)C[C@@](C)(CO)C5)c(F)c4)nc3c12 [Example 268] | < 25
CN1C(=O)c2cccc(OC(F)F)c2[C@H]2C[C@@H]1c1nn3cc(F)c(-c4cnc([C@](C)(O)CC#N)nc4)cc3c12 [Example 117] | < 25

Other lines, results leading:

IC50 [nM] | Structure (SMILES)
< 25 | C[C@@H](O)[C@H](O)c1ncc(-c2ccn3nc4c(c3c2)[C@@H]2C[C@H]4N(C)C(=O)c3cccc(OC(F)F)c32)cn1 [Example 119]
< 25 | CN1C(=O)c2cccc(OC(F)F)c2[C@H]2C[C@@H]1c1nn3ccc(-c4cnc([C@]5(O)C[C@@](C)(C#N)C5)nc4)cc3c12 [Example 18]
< 25 | CN1C(=O)c2cccc(OC(F)F)c2[C@H]2C[C@@H]1c1nn3ccc(-c4cnc(C5(N)CC5)nc4)cc3c12 [Example 17]
< 25 | [2H]C([2H])([2H])N1C(=O)c2cccc(OC(F)F)c2[C@H]2C[C@@H]1c1nn3ccc(-c4cnc([C@](C)(O)CC#N)nc4)cc3c12 [Example 90]
< 25 | [2H]C([2H])([2H])N1C(=O)c2cccc(OC(F)F)c2[C@H]2C[C@@H]1c1nn3ccc(-c4cnc([C@]5(N)C[C@H](C#N)C5)nc4)nc3c12 [Example 179]
< 25 | [2H]C([2H])([2H])N1C(=O)c2cccc(OC(F)F)c2[C@H]2C[C@@H]1c1nn3cc(F)c(-c4cnc(C(C)(C)N)nc4)cc3c12 [Example 294]
< 25 | CN1C(=O)c2cccc(OC(F)F)c2[C@H]2C[C@@H]1c1nn3ccc(-c4cnc(C(C)(C)N)nc4)cc3c12 [Example 324]
< 25 | CN1C(=O)c2cccc(OC(F)F)c2[C@H]2C[C@@H]1c1nn3cc(F)c(-c4cnc([C@]5(O)C[C@@](C)(O)C5)cn4)cc3c12 [Example 43]
< 25 | CN1C(=O)c2cccc(OC(F)F)c2[C@H]2C[C@@H]1c1nn3ccc(-c4cnc(C5(O)CCC(F)(F)CC5)nc4)cc3c12 [Example 72]
< 25 | [2H]C([2H])([2H])N1C(=O)c2cccc(OC(F)F)c2[C@H]2C[C@@H]1c1nn3ccc(-c4cnc([C@]5(N)C[C@@](C)(C#N)C5)nc4C)cc3c12 [Example 231]
< 25 | [2H]C([2H])([2H])N1C(=O)c2cccc(OC(F)F)c2[C@H]2C[C@@H]1c1nn3ccc(-c4cnc([C@]5(N)C[C@@H](O)C5)nc4)cc3c12 [Example 187]
< 25 | CN1C(=O)c2cccc(OC3CC3)c2[C@H]2C[C@@H]1c1nn3ccc(-c4cnc([C@]5(O)C[C@@](C)(O)C5)nc4)cc3c12 [Example 37]
< 25 | C[C@]1(C#N)C[C@](N)(c2ncc(-c3nc4c5c(nn4cc3F)[C@H]3C[C@@H]5c4c(OC(F)F)cccc4C(=O)N3)cn2)C1 [Example 235]
< 25 | CN1C(=O)c2cccc(OC(F)F)c2[C@H]2C[C@@H]1c1nn3cnc(-c4ccc(P(C)(C)=O)nc4)cc3c12 [Example 30]
100 to 1000 | CN1C(=O)c2cccc(OC(F)F)c2[C@@H]2C[C@H]1c1nn3ccc(-c4cnc(C5(N)CCC5)nc4)nc3c12 [Example 2, (7S,14R)-12-(2-(1-aminocyclobutyl)pyrimidin-5-yl)-1-(difluoromethoxy)-6-methyl-6,7-dihydro-7,14-methanobenzo[c]pyrimido[1′,2′:1,5]pyrazolo[4,3-f]azocin-5 (14H)-one]
< 25 | CN1C(=O)c2cccc(OC(F)F)c2[C@H]2C[C@@H]1c1nn3ccc(C4=CCC(C(C)(C)O)OC4)cc3c12 (stereo in doubt) [Example 319, (7R,14S)-1-(difluoromethoxy)-12-((S)-6-(2-hydroxypropan-2-yl)-5,6-dihydro-2H-pyran-3-yl)-6-methyl-6,7-dihydro-7,14-methanobenzo[c]pyrido[1′,2′:1,5]pyrazolo[4,3-f]azocin-5 (14H)-one]
< 25 | C[C@]1(O)C[C@](N)(c2ncc(-c3ccn4nc5c(c4c3)[C@@H]3C[C@H]5NC(=O)c4ccc(F)c(OC(F)F)c43)cn2)C1 [Example 229]
< 25 | [2H]C([2H])([2H])N1C(=O)c2cccc(OC(F)F)c2[C@H]2C[C@@H]1c1nn3ccc(-c4cnc(C5(N)CCC5)c(F)c4)cc3c12 [Example 250]
< 25 | COc1cccc2c1[C@H]1C[C@H](c3nn4ccc(-c5cnc(C6(N)CCC6)nc5)cc4c31)N(C)C2=O [Example 226]
< 25 | CN1C(=O)c2cccc(OC(F)F)c2[C@H]2C[C@@H]1c1nn3cc(F)c(-c4ccc(P(C)(C)=O)nc4)cc3c12 [Example 29]
< 25 | [2H]C([2H])([2H])N1C(=O)c2cccc(OC(F)F)c2[C@H]2C[C@@H]1c1nn3cc(C)c(-c4cnc(C5(N)CCC5)nc4)nc3c12 [Example 216]
< 25 | [2H]C([2H])([2H])N1C(=O)c2cccc(OC(F)F)c2[C@H]2C[C@@H]1c1nn3cc(F)c(-c4cnc([C@]5(N)C[C@](C)(C#N)C5)nc4)cc3c12 [Example 244]

Same assay, conditions: HEK-Blue hTNFα reporter cells; read-out: TNFα reporter, Emax

Emax [%] | Structure (SMILES)
80 | CN1C(=O)c2cccc(OC(F)F)c2[C@H]2C[C@@H]1c1nc3ccc(-c4cnc([C@]5(N)C[C@@](C)(C#N)C5)c(F)c4)cc3n12 [Comp. Ex #8, reference compound]

Same assay, conditions: HEK-Blue hTNFα reporter cells; read-out: TNFα reporter, IC50

IC50 [nM] | Structure (SMILES)
5.3 | CN1C(=O)c2cccc(OC(F)F)c2[C@H]2C[C@@H]1c1nc3ccc(-c4cnc([C@]5(N)C[C@@](C)(C#N)C5)c(F)c4)cc3n12 [Comp. Ex #8, reference compound]

— patent publication US12410179B2, “Modulators of TNF alpha activity and uses thereof” (RayThera, Inc., priority 2023, dated 2025)
